Measured values reported in patent US9301923B2, “Lipids, lipid compositions, and methods of using them” (NOVARTIS AG, priority 2009, dated 2016).
Values joined by “and” are separate entries in the source; they are usually repeats but may differ in a detail not shown here. Equal entries are not always repeated. Where two headings read alike, the source gives them in different places.

Tests used:
[1] = Particle size and PDI by dynamic light scattering (Malvern Zetasizer); type: physicochemical
Description: Unless indicated otherwise, all sizes referred to herein are the average sizes (diameters) of the fully formed nanoparticle, as measured by dynamic light scattering on a Malvern Zetasizer. The nanoparticle sample is diluted in phosphate buffered saline (PBS) so that the count rate is approximately 200-400 kcts. The data is presented as a weighted average of the intensity measure.
The acronym PDI stands for polydispersity index. Unless indicated otherwise, all PDIs referred to herein are the PDI of the fully formed nanoparticle, as measured by dynamic light scattering on a Malvern Zetasizer. The nanoparticle sample is diluted in phosphate buffered saline (PBS) so that the count rate is approximately 200-400 kcts.

[2] = system: Factor VII; assay: Factor VII activity assay, in vivo liver delivery of FVII siRNA LNP; design: species or system mouse; settings: for FVII inhib %: ~48 h
Description: Female CD-1 mice are received from Charles River Labs and maintained on standard lab chow and water ad libitum. The animals weigh approximately 25 grams at time of dosing. Formulated siRNA is administered as a single dose at various dose levels intravenously via the lateral tail vein calculated on a (mg siRNAs/kg) basis according to individual animal weights (10 ml/kg injection volume).
Formulated siRNAs are made up of double stranded siRNA sequences specific to a target mRNA sequence, and are in the form of lipid nucleotid particles (LNPs) containing cationic lipids, stealth lipids and neutral lipids, as provided in the Examples below. The siRNA construct for use in targeting the liver is specific to Factor VII. […] FVII siRNA duplex sequence
Formulated Factor VII siRNA is administered as a single dose at various dose levels intravenously via the lateral tail vein calculated on a mg siRNAs/kg basis according to individual animal weights (10 ml/kg injection volume). Approximately 48 h after injection, the mice are euthanized by CO2 inhalation followed by exsanguinations through the vena cava. […] In some cases, small pieces (˜50 mg) of liver are collected and snap frozen in liquid nitrogen for follow up mRNA quantitation.
An assay standard curve is prepared using pooled plasma aliquots from the vehicle control animals.

[3] = pKa of the lipid by TNS fluorescence; type: physicochemical
Description: Unless explicitly indicated otherwise, all pKas referred to herein are measured in water at standard temperature and pressure. Also, unless otherwise indicated, all references to pKa are references to pKa measured using the following technique.
2 mM solution of lipid in ethanol are prepared by weighing the lipid and then dissolving in ethanol.
This is done with all eight buffers.
Priority: Column priority • Carriage Speed: Normal • Auto read: Off
The normalized fluorescence intensity vs. pH chart is then plotted in the Microsoft Excel software. The eight points are connected with a smooth line.
The pKa determined using this method is precise to about 0.2 pKa units.

[4] = lipid/DSPC/CHOL/AVANTI 880150P 50/28/18/4, N/P 3.43
[5] = lipid/no neutral lipid/CHOL/AVANTI 880150P 50/0/46/4, N/P 3.43
[6] = dose 3 mg/kg siRNA i.v., lipid/DSPC/CHOL/AVANTI 880150P 50/28/18/4, N/P 3.43
[7] = dose 3 mg/kg siRNA i.v., lipid/no neutral lipid/CHOL/AVANTI 880150P 50/0/46/4, N/P 3.43
[8] = dose 1 mg/kg siRNA i.v., lipid/no neutral lipid/CHOL/AVANTI 880150P 50/0/46/4, N/P 3.43

| SMILES | Final size (nm) [1, 4] [nm] | PDI [1, 4] | Final size (nm) [1, 5] | PDI [1, 5] | FVII inhib % [2, 6] [%] | FVII inhib % [2, 7] [%] | pKa ([3]; pKa) | FVII inhib % ([2]; dose 1 mg/kg siRNA i.v., lipid/DSPC/CHOL/AVANTI 880150P 50/28/18/4, N/P 3.43) [%] | FVII inhib % [2, 8] [%] | in vivo Factor VII inhibition ([2]; formulation containing the cationic lipid, RNAi construct specific to Factor VII, liver) [%] | pKa [3] |
| --- | --- | --- | --- | --- | --- | --- | --- | --- | --- | --- | --- |
| CCCCC/C=C\C/C=C\CCCCCCCCOCC(CN1CCCC1)OCCOCCO[C@H]1CC[C@@]2(C)C(=CC[C@H]3[C@@H]4CC[C@H]([C@H](C)CCCC(C)C)[C@@]4(C)CC[C@@H]32)C1 (some centres unmarked) [E0015] | 164 | 0.06 | 130 nm | 0.05 | 30.7 | 77.1 | 7.39 | – | – | – | – |
| CCCCC/C=C\C/C=C\CCCCCCCCOCC(CN1CCC2(CC1)OCCO2)OCCOCCO[C@H]1CC[C@@]2(C)C(=CCC3C2CC[C@@]2(C)C3CC[C@@H]2[C@H](C)CCCC(C)C)C1 (some centres unmarked) [E0016] | 97 | 0.175 | 178 nm | 0.206 | 88.8 | 59.9 | 5.85 | – | – | – | – |
| CCCCC/C=C\C/C=C\CCCCCCCCOCC(CN1CCCCCC1)OCCOCCO[C@H]1CC[C@@]2(C)C(=CC[C@H]3[C@@H]4CC[C@H]([C@H](C)CCCC(C)C)[C@@]4(C)CC[C@@H]32)C1 (some centres unmarked) [E0017] | 106 | 0.17 | 97 nm | 0.19 | 98.3 | 96.5 | 6.46 | 53.8 | – | – | – |
| CCCCC/C=C\C/C=C\CCCCCCCCOCC(CN1CC=CCC1)OCCOCCO[C@H]1CC[C@@]2(C)C(=CCC3C2CC[C@@]2(C)C3CC[C@@H]2[C@H](C)CCCC(C)C)C1 (some centres unmarked) [E0018] | 119 | 0.095 | 103 nm and 140 nm | 0.113 and 0.13 | 91.8 | 98 | 5.9 | – | 40.5 | – | – |
| CCCCC/C=C\C/C=C\CCCCCCCCOCC(CN1CCCC[C@@H]1C)OCCOCCO[C@H]1CC[C@@]2(C)C(=CCC3C2CC[C@@]2(C)C3CC[C@@H]2[C@H](C)CCCC(C)C)C1 (some centres unmarked) [E0019] | 143 | 0.065 | 90.5 nm and 180 nm | 0.164 and 0.19 | 76.7 | 85.2 | 6.75 | – | 33.7 | – | – |
| CCCCC/C=C\C/C=C\CCCCCCCCOCC(CN1CC[C@@H]2CCCC[C@H]2C1)OCCOCCO[C@H]1CC[C@@]2(C)C(=CCC3C2CC[C@@]2(C)C3CC[C@@H]2[C@H](C)CCCC(C)C)C1 (some centres unmarked) [E0020] | 83 | 0.138 | 81 nm | 0.084 | 62.4 | 51.4 | 6.08 | – | – | – | – |
| CCCCC/C=C\C/C=C\CCCCCCCCOCC(CN1CC[C@@H]2CCCC[C@@H]2C1)OCCOCCO[C@H]1CC[C@@]2(C)C(=CCC3C2CC[C@@]2(C)C3CC[C@@H]2[C@H](C)CCCC(C)C)C1 (some centres unmarked) [E0021] | 85 | 0.22 | 72 nm | 0.184 | 24.5 | 52.8 | 5.13 | – | – | – | – |
| CCCCC/C=C\C/C=C\CCCCCCCCOCC(CN1CCCC(C)C1)OCCOCCO[C@H]1CC[C@@]2(C)C(=CCC3C2CC[C@@]2(C)C3CC[C@@H]2[C@H](C)CCCC(C)C)C1 (some centres unmarked) [E0023] | 95 | 0.221 | 99 nm | 0.122 | 59.1 | 68 | 5.85 | – | – | – | – |
| CCCCC/C=C\C/C=C\CCCCCCCCOCC(CN1CCCCC1)OCCCCO[C@H]1CC[C@@]2(C)C(=CCC3C2CC[C@@]2(C)C3CC[C@@H]2[C@H](C)CCCC(C)C)C1 (some centres unmarked) [E0027] | 146 | 0.311 | 65 nm | 0.15 | 36.3 | 30.3 | 5.7 | – | – | 30.3 | 5.71 |
| CCCCC/C=C\C/C=C\CCCCCCCCOCC(CN1CCOCC1)OCCCCO[C@H]1CC[C@@]2(C)C(=CCC3C2CC[C@@]2(C)C3CC[C@@H]2[C@H](C)CCCC(C)C)C1 (some centres unmarked) [E0028] | 129 | 0.216 | 68 nm | 0.125 | 12.5 | 38.7 | 4.8 | – | – | – | – |
| CCCCC/C=C\C/C=C\CCCCCCCCOCC(CN1Cc2ccccc2C1)OCCOCCO[C@H]1CC[C@@]2(C)C(=CCC3C2CC[C@@]2(C)C3CC[C@@H]2[C@H](C)CCCC(C)C)C1 (some centres unmarked) [E0029] | 137 | 0.04 | 113 nm | 0.08 | 12.4 | −19.1 | 4.95 | – | – | – | – |
| CCCCC/C=C\C/C=C\CCCCCCCCOCC(CN1CCOCCOCCOCC1)OCCOCCO[C@H]1CC[C@@]2(C)C(=CC[C@H]3[C@@H]4CC[C@H]([C@H](C)CCCC(C)C)[C@@]4(C)CC[C@@H]32)C1 (some centres unmarked) [E0030] | – | – | 155 nm | 0.08 | – | 12.4 | 5.38 | – | – | – | – |
| CCCCC/C=C\C/C=C\CCCCCCCCOCC(CN1CCSCC1)OCCOCCO[C@H]1CC[C@@]2(C)C(=CCC3C2CC[C@@]2(C)C3CC[C@@H]2[C@H](C)CCCC(C)C)C1 (some centres unmarked) [E0031] | 108 | 0.23 | 65 nm | 0.11 | 36.7 | 27.1 | 4.8 | – | – | – | – |
| CCCCC/C=C\C/C=C\CCCCCCCCOCC(CN1CC=CC1)OCCOCCO[C@H]1CC[C@@]2(C)C(=CCC3C2CC[C@@]2(C)C3CC[C@@H]2[C@H](C)CCCC(C)C)C1 (some centres unmarked) [E0032] | 87 | 0.18 | 63 nm | 0.21 | 64.5 | 85.5 | 6.8 | – | – | – | – |
| CCCCC/C=C\C/C=C\CCCCCCCCOCC(CN1CCC(OC)C1)OCCCCO[C@H]1CC[C@@]2(C)C(=CCC3C2CC[C@@]2(C)C3CC[C@@H]2[C@H](C)CCCC(C)C)C1 (some centres unmarked) [E0035] | 103 | 0.2 | 79 nm | 0.21 | 22 | 66.8 | 5.93 | – | – | – | – |
| CCCCC/C=C\C/C=C\CCCCCCCCOCC(CN1CCCCC1)OC(=O)CCC(=O)O[C@H]1CC[C@@]2(C)C(=CCC3C2CC[C@@]2(C)C3CC[C@@H]2[C@H](C)CCCC(C)C)C1 (some centres unmarked) [E0036] | 122 | 0.12 | 76 nm | 0.24 | −47 | −23.1 | 5.74 | – | – | – | – |
| CCCCC/C=C\C/C=C\CCCCCCCCOCC(CN1CCC(N(C)C)C1)OCCOCCO[C@H]1CC[C@@]2(C)C(=CC[C@H]3[C@@H]4CC[C@H]([C@H](C)CCCC(C)C)[C@@]4(C)CC[C@@H]32)C1 (some centres unmarked) [E0039] | 113 | 0.15 | 94 nm | 0.06 | −6.7 | −5.4 | 5.88 | – | – | – | – |
| CCCCC/C=C\C/C=C\CCCCCCCCOCC(CN1CC2CCCN(C(=O)OC(C)(C)C)C2C1)OCCOCCO[C@H]1CC[C@@]2(C)C(=CCC3C2CC[C@@]2(C)C3CC[C@@H]2[C@H](C)CCCC(C)C)C1 (some centres unmarked) [E0041] | 95 | 0.37 | 93 nm | 0.21 | −7.4 | 17.6 | 4.8 | – | – | – | – |
